Test results reported in US20020155518A1, “Method of detecting compounds that control fungal diseases via effects on sporulation” (priority 2000, published 2002).

Key:
[1] = tested on: Leptosphaeria (Septoria) nodorum; test: Protectant foliar spray test against wheat L. nodorum blotch; type: in vivo; note: key: '+++' =high control; '++' =moderate control; '+' =low control; '0'=no control
[2] = tested on: Rice Blast (Magnaporthe grisea); type: in vivo; conditions: foliar spray before inoculation, vs untreated inoculated controls
[3] = tested on: Wheat Powdery Mildew (Blumeria [Erysiphe] graminis f.sp. tritici); conditions: in vivo; note: key: '+++' =high control; '++' =moderate control; '+' =low control; '0'=no control
[4] = tested on: Apple Scab (Venturia inaequalis); test: Protectant foliar spray test against apple scab; type: in vivo; note: key: '+++' =high control; '++' =moderate control; '+' =low control; '0'=no control
[5] = wheat, foliar spray before inoculation, vs untreated inoculated controls
[6] = apple seedlings, foliar spray before inoculation, vs untreated inoculated controls

Compound	Level of Plant Disease Control, Wheat L. nodorum [1, 5]	Level of Plant Disease Control, Rice Blast [2]	Level of Plant Disease Control, Wheat Powdery Mildew [3]	Level of Plant Disease Control, Apple Scab [4, 6]	Level of Plant Disease Control, Wheat L. nodorum ([1]; in vivo)	Level of Plant Disease Control, Apple Scab ([4]; in vivo)
COc1cc(C)c(C(=O)c2c(OC)ccc(Br)c2C)c(OCc2ccccc2C)c1OC [AA, (3-bromo-6-methoxy-2-methyiphenyl)[3,4-dimethoxy-6-methyl-2-[(2-methylphenyl)methoxy]phenyl]methanone]	0	0	+++	0		
CCCCOc1c(OC)cc(C)c(C(=O)c2c(Cl)cccc2Cl)c1OCCCC [B, (2,3-dibutoxy-4-methoxy-6-methylphenyl)(2,6-dichlorophenyl)methanone]	0	0	+++	0		
CCCOc1c(OC)cc(C)c(C(=O)c2c(OC)ccc(Br)c2C)c1OCc1ccc(C(C)(C)C)cc1 [BB, (3-bromo-6-methoxy-2-methylphenyl)[4-methoxy-6-methyl-3-propoxy-2-[[4-(1,1-dimethylethyl)phenyl]methoxy]phenyl]methanone]	0	0	+++	0		
COc1cc(C)c(C(=O)c2c(OC)ccc(Br)c2C)c(OCc2ccccc2F)c1OC [C, (3-bromo-6-methoxy-2-methylphenyl)[3,4-dimethoxy-6-methyl-2-[(2-fluorophenyl)methoxy]phenyl]methanone]		++	+++	0		
CCCOc1c(OC)cc(C)c(C(=O)c2c(OC)ccc(Br)c2C)c1OCc1ccc(C(F)(F)F)cc1 [CC, (3-bromo-6-methoxy-2-methylphenyl)[4-methoxy-6-methyl-3-propoxy-2-[[4-(trifluoromethyl)phenyl]methoxy]phenyl]methanone]	0	0	+++	0		
COc1cc(C)c(C(=O)c2c(C)cccc2C)c(OCc2cccc(C)c2)c1OC [Compound E, [3,4-dimethoxy-6-methyl-2-[(3-methylphenyl)methoxy]phenyl](2,6-dimethylphenyl)methanone]			+++			
COc1cc(C)c(C(=O)c2c(O)ccc(Cl)c2C)c(OC)c1OC [Compound N, (3-chloro-6-hydroxy-2-methylphenyl)(2,3,4-trimethoxy-6-methylphenyl)methanone]	0	++	+++	0		
COc1cc(C)c(C(=O)c2c(OC)ccc(Br)c2C)c(OCc2cccc(C)c2)c1OC [Compound S, (3-bromo-6-methoxy-2-methylphenyl)[3,4-dimethoxy-6-methyl-2-[(3-methylphenyl)methoxy]phenyl]methanone]			+++			
COc1cc(C)c(C(=O)c2c(Cl)cccc2Cl)c(OCc2ccc(F)cc2)c1OC [D, (2,6-dichlorophenyl)[2-[(4-fluorophenyl)methoxy]-3,4-dimethoxy-6-methylphenyl]methanone]			+++			
CCCOc1c(OC)cc(C)c(C(=O)c2c(OC)ccc(Cl)c2C)c1O [DD, (3-chloro-6-methoxy-2-methylphenyl)(2-hydroxy-4-methoxy-6-methyl-3-propoxyphenyl)methanone]	0	0	+++	0		
COc1cc(C)c(C(=O)c2c(OC)ccc(Br)c2C)c(OCc2ccc(Cl)cc2)c1OC [EE, (3-bromo-6-methoxy-2-methylphenyl)[3,4-dimethoxy-6-methyl-2-[(4-chlorophenyl)methoxy]phenyl]methanone]	0	0	+++	0		
COc1cc(C)c(C(=O)c2c(C)ccc3ccccc23)c(OC)c1OC [F, (2,3,4-trimethoxy-6-methylphenyl)(2-methyl-1-naphthalenyl)methanone]	0	++	+++	0		
COc1cc(C)c(C(=O)c2c(C)cccc2OC)c(OC)c1OC [G, (2-methoxy-6-methylphenyl)(2,3,4-trimethoxy-6-methylphenyl)methanone]	0	0	+++	0		
COc1cc(C)c(C(=O)c2c(C)cccc2C)c(OCc2c(F)cc(F)cc2F)c1OC [H, [3,4-dimethoxy-6-methyl-2-[(2,4,6-trifluorophenyl)methoxy]phenyl](2,6-dimethylphenyl)methanone]	0	0	+++	0		
COc1cc(C)c(C(=O)c2c(Cl)cccc2OC)c(OCc2cccc(C)c2)c1OC [I, (2-chloro-6-methoxyphenyl)[3,4-dimethoxy-6-methyl-2-[(3-methylphenyl)methoxy]phenyl]methanone]	0	+	+++	++		
COc1cc(C)c(C(=O)c2c(OC)ccc(Br)c2Cl)c(OC)c1OC [J, (3-bromo-2-chloro-6-methoxyphenyl)(2,3,4-trimethoxy-6-methylphenyl)methanone]	0	0	+++	+		
COc1cc(C(=O)c2c(Cl)cccc2Cl)c(C)cc1OC1CCCC1 [K, [4-(cyclopentyloxy)-5-methoxy-2-methylphenyl](2,6-dichlorophenyl)methanone]	+++	0	0			
COc1cc(C)c(C(=O)c2c(C)cccc2C)c(OC)c1OC [L, (2,6-dimethylphenyl)(2,3,4-trimethoxy-6-methylphenyl)methanone]	0	0	+++	0		
COc1cc(C)c(C(=O)c2c(OC)ccc(Br)c2C)c(OC)c1OC [M, (3-bromo-6-methoxy-2-methylphenyl)(2,3,4-trimethoxy-6-methylphenyl)methanone]		0	+++		0	+++
COc1cc(C)c(C(=O)c2c(C)cccc2C)c(OCc2ccccc2)c1OC [O, [3,4-dimethoxy-6-methyl-2-(phenylmethoxy)phenyl](2,6-dimethylphenyl)methanone]	0	++	+++	0		
